Data: ChEMBL document CHEMBL1141473, “Tricyclic HIV integrase inhibitors: potent and orally bioavailable C5-aza analogs” (Bioorg Med Chem Lett, 2008)
pEC50, pIC50: −log10 of the molar value. Converted amounts (≈) assume the structure as drawn.

Key:
[1] = Inhibition of HIV integrase strand transfer activity; set-up: species or system Human immunodeficiency virus
[2] = tested on: Human immunodeficiency virus; assay: Antiviral activity against HIV in MT2 cells in presence of 35 mg/mL human serum albumin; format: functional, organism-based; conditions: Human immunodeficiency virus 1, MT2
[3] = tested on: Human immunodeficiency virus 1; assay: Antiviral activity against HIV1 3B in MT2 cells after 5 days; format: functional, organism-based; conditions: Human immunodeficiency virus 1, 3B, MT2, 120 h
[4] = Aqueous solubility at pH 7.3; format: physicochemical
[5] = Oral bioavailability in rat; format: ADME, organism-based; conditions: in vivo
[6] = Half life in iv dosed rat; format: ADME, organism-based; conditions: in vivo
[7] = Total clearance in iv dosed rat; format: ADME, organism-based; conditions: in vivo
[8] = Oral bioavailability in dog; format: ADME, organism-based, Canis lupus familiaris; conditions: in vivo
[9] = Half life in iv dosed dog; format: ADME, organism-based, Canis lupus familiaris; conditions: in vivo
[10] = Total clearance in iv dosed dog; format: ADME, organism-based, Canis lupus familiaris; conditions: in vivo

SMILES	pIC50 [1]	pEC50 [2]	pEC50 [3]	solubility [4] [µM]	bioavailability [5] [%]	half-life [6] [min]	clearance [7] [L/h/kg]	bioavailability [8] [%]	half-life [9] [min]	clearance [10] [L/h/kg]
Cc1nnc(C(=O)NC(C)(C)c2nc(C(=O)NCc3ccc(F)cc3)c(O)c(=O)n2C)o1	7.57	–	8.22	–	–	–	–	–	–	–
CC(=O)N(C)c1c2c(c(O)c3ncccc13)C(=O)N(Cc1ccc(F)cc1)C2	7.00	–	7.33	–	–	–	–	–	–	–
CN(C)S(=O)(=O)N(C)c1c2c(c(O)c3ncccc13)C(=O)N(Cc1ccc(F)cc1)C2	7.21	8.08	8.51	4.5 (≈ 2 µg/mL)	13	54	0.23	16	270	0.34

More lines, in order of rising pIC50 [1], values ahead:

pIC50 [1]	pEC50 [2]	pEC50 [3]	solubility [4] [µM]	bioavailability [5] [%]	half-life [6] [min]	clearance [7] [L/h/kg]	bioavailability [8] [%]	half-life [9] [min]	clearance [10] [L/h/kg]	SMILES
6.58	–	7.51	–	–	–	–	–	–	–	CN(C)C(=O)C(=O)N(C)c1c2c(c(O)c3ncccc13)C(=O)N(Cc1ccc(F)cc1)C2
7.15	–	8.00	844 (≈ 345 µg/mL)	–	–	–	–	–	–	CN(C)C(=O)N(C)c1c2c(c(O)c3ncccc13)C(=O)N(Cc1ccc(F)cc1)C2
7.30	7.27	–	–	–	–	–	–	–	–	O=C1c2c(c(C(=O)N3CCOCC3)c3cccnc3c2O)CN1Cc1ccc(F)cc1
7.89	7.31	8.85	2.8 (≈ 1.2 µg/mL)	4	36	1.53	8.3	48	0.3	O=C1c2c(c(N3CCCS3(=O)=O)c3cccnc3c2O)CN1Cc1ccc(F)cc1
